Patent US20240239795A1, “NOVEL AZAINDOLE DERIVATIVES AS ANTIVIRAL AGENTS” (Centre National de la Recherche Scientifique, priority 2021, published 2024)

Tests used:
[1] = test system: MAYV virus, TRVL4576 strain; assay: Antiviral activity against the Mayaro virus in HeLa cells (luciferase reporter); conditions: 24 h, read-out: IC50 MAYV
[2] = test system: WNV virus, Kunjin strain (KUNV); assay: Antiviral activity against the WNV virus Kunjin strain in HeLa cells (nanoluciferase reporter); assay type: cell-based; conditions: West Nile virus, KUNV-luciferase reporter virus, MOI=0.1, 24 h
[3] = test system: ZIKV BeH8 strain; assay: Antiviral activity against the Zika virus in HeLa cells (viral RNA by qRT-PCR); conditions: for IC50: Zika virus, HeLa, 24 h, read-out: IC50 ZIKV
[4] = test system: CHIKV virus, LR-OPY1 strain; assay: Antiviral activity against the Chikungunya virus in HeLa cells (luciferase/GFP reporter); conditions: for IC50: Chikungunya virus, HeLa, 24 h, read-out: IC50 CKV
[5] = test system: SARS-COV2 virus, BetaCoV/France/IDF0371/2020; assay: Antiviral activity against SARS-COV2 coronavirus in VeroE6 cells (viral RNA by qRT-PCR); assay type: cell-based; conditions: 1.25 μM, 24 h

Cc1ccc(C(=O)Nc2cccc(-c3c[nH]c4ncc(-c5ccccc5)cc34)c2)c(=O)n1-c1ccc(F)cc1 [Compound 4, 1-(4-fluorophenyl)-6-methyl-2-oxo-1,2-dihydro-pyridine-3-carboxylic acid [3-(5-phenyl-1H-pyrrolo[2,3-b]pyridin-3-yl)-phenyl]-amide]
IC50 [1]: 313 nM | IC50 [2]: 1320 nM | concentration that prevents infection of the Hela cells by the strain ZIKV BeH-8 ([3]; HeLa cells, MOI=0.1, 24 h): greater than or equal to 100 nM | IC50 [3]: 290 nM | IC50 [4]: 243 nM | concentration that prevents infection of the Hela cells by the Chikungunya virus ([4]; HeLa cells, MOI=0.1, 24 h): greater than or equal to 100 nM

O=C(Nc1ccc(F)cc1)C1(C(=O)Nc2cccc(-c3c[nH]c4ncc(-c5ccccc5)cc34)c2)CC1 [Compound 5, Cyclopropane-1,1-dicarboxylic acid (4-fluoro-phenyl)-amide [3-(5-phenyl-1H-pyrrolo[2,3-b]pyridin-3-yl)-phenyl]-amide]
effect on infection of the cells by the SARS-COV2 virus [5]: reduces the infection

Cc1ccc(C(=O)Nc2ccc(F)c(-c3c[nH]c4ncc(-c5ccccc5)cc34)c2)c(=O)n1-c1ccc(F)cc1 [Compound 15, 1-(4-fluorophenyl)-6-methyl-2-oxo-1,2-dihydro-pyridine-3-carboxylic acid [4-fluoro-3-(5-phenyl-1H-pyrrolo[2,3-b]pyridin-3-yl)-phenyl]-amide]
IC50 [2]: 934 nM

Nc1nc(Nc2ccc3c(c2)CC[C@@H](N2CCCC2)CC3)nn1-c1cc2c(nn1)-c1ccccc1CCC2 [R428/Bemcentinib, reference compound]
IC50 [3]: 285 nM | IC50 [4]: 239 nM
